This is an account of results in ChEMBL document CHEMBL5113519, “Discovery of Novel Imidazo[4,5-c]quinoline Derivatives to Treat Inflammatory Bowel Disease (IBD) by Inhibiting Multiple Proinflammatory Signaling Pathways and Restoring Intestinal Homeostasis” (J Med Chem, 2022).

The source made the active and inactive calls. The calls are words filed in the database; no cut-off is given here. Some results are limits rather than exact numbers.

Data set [1] in a line: Cytotoxicity against human GM00637 cells assessed as inhibition of cell growth measured after 24 hrs by CCK-8 method. The class given is toxicity, cell-based.
Data set [2] deals with THP1-Dual. Kind of data set: Anti-inflammatory activity against LPS-stimulated human THP1-Dual cells assessed as reduction in STAT1 phosphorylation level incubated for 6 hrs by Western blot analysis. The class given is functional, cell-based. Conditions: dose 0.33-3 µM, DDE = dose-dependent effect.
The subject of data set [3] is THP1-Dual. The experiment in a line: Anti-inflammatory activity against LPS-stimulated human THP1-Dual cells assessed as inhibition of IL-1 beta secretion incubated for 6 hrs followed by LPS stimulation by Western blot analysis. The class given is functional, cell-based. The settings on record: dose 0.33-3 µM, DDE = dose-dependent effect.
Data set [4] deals with Mus musculus. The experiment in a line: Antiinflammatory activity in DSS-induced acute colitis C57BL/6 mouse model assessed as reduction in bloody stool by measuring DAI score at 1 to 3 mg/kg, po administered daily and measured upto 11 days. The class given is functional, organism-based. Conditions: dose 1-3 mg/kg, time <= 11.0 day.
Data set [5] deals with Mus musculus. Kind of data set: Anti-inflammatory activity in TNBS induced IBD BALB/c mouse model assessed as reduction in stool softness by measuring disease activity index score at 1 to 5 mg/kg via oral gavage administered daily for 12 days. The class given is functional, organism-based. The settings on record: dose 1-5 mg/kg, time 12.0 day.
Data set [6] can be described thus: Toxicity in mouse assessed as abnormal change in heart at 20 to 50 mg/kg, IG measured upto 2 weeks. The settings on record: in vivo, po, 336 h, dose 20-50 mg/kg. The class given is organism-based.
The nature of data set [7]: Toxicity in mouse assessed as abnormal change in liver at 20 to 50 mg/kg, IG measured upto 2 weeks. The class given is organism-based. Conditions: in vivo, po, 336 h, dose 20-50 mg/kg.
Data set [8] in a line: Toxicity in mouse assessed as effect on red blood cell number at 20 to 50 mg/kg, IG measured upto 2 weeks. The settings on record: in vivo, po, 336 h, dose 20-50 mg/kg. The class given is organism-based.
The subject of data set [9] is THP1-Dual. The experiment in a line: Downregulation of IFN-gamma in human THP1-Dual cells at 1 uM incubated for 6 hrs. The class given is functional, cell-based.
For data set [10], the system named is THP1-Dual. The experiment in a line: Downregulation of TNF alpha in human THP1-Dual cells at 1 uM incubated for 6 hrs. The class given is functional, cell-based.
The target of data set [11] is Tyrosine-protein kinase JAK2 (Homo sapiens, UniProt O60674).
Description: Inhibition of JAK2 (unknown origin) using Kinase/Tyr 6 peptide as substrate incubated for 1 hrs in presence of ATP by fluorescence microplate reader analysis
Data set [12] concerns the target T1, Tyrosine-protein kinase JAK3 (Homo sapiens, UniProt P52333).
T1 sequence (P52333 whole entry): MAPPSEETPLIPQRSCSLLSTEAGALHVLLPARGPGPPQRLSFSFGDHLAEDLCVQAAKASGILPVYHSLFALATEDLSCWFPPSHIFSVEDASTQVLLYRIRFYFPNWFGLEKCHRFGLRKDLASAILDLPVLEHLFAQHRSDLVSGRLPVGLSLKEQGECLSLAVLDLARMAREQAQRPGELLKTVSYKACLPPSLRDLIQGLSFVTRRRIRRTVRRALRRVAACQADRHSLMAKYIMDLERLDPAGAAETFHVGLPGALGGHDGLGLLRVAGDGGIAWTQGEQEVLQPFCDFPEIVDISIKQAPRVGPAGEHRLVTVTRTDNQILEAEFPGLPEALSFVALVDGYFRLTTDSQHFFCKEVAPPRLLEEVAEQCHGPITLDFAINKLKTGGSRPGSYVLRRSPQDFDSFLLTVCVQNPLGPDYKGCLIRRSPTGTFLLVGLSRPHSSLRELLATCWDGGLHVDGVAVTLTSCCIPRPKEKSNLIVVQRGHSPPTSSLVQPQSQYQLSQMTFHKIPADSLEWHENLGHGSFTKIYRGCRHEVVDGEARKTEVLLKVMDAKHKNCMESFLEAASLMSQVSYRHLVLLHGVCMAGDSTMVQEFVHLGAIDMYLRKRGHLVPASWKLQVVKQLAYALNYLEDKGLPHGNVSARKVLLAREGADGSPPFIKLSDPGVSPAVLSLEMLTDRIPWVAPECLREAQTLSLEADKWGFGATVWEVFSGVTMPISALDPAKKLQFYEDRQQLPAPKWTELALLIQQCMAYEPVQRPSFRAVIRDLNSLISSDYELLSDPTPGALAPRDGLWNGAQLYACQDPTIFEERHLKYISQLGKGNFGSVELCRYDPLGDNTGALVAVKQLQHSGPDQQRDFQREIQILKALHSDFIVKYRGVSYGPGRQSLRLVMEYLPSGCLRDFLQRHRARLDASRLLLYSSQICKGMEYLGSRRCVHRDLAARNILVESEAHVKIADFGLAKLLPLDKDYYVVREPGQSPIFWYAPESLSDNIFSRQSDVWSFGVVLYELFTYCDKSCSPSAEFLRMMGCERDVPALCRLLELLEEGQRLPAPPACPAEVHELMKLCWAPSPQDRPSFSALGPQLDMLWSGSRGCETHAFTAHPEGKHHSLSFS
Description: Inhibition of JAK3 (unknown origin) using Kinase/Tyr 6 peptide as substrate incubated for 1 hrs in presence of ATP by fluorescence microplate reader analysis

Chain of Tyrosine-protein kinase JAK2 (O60674 whole entry): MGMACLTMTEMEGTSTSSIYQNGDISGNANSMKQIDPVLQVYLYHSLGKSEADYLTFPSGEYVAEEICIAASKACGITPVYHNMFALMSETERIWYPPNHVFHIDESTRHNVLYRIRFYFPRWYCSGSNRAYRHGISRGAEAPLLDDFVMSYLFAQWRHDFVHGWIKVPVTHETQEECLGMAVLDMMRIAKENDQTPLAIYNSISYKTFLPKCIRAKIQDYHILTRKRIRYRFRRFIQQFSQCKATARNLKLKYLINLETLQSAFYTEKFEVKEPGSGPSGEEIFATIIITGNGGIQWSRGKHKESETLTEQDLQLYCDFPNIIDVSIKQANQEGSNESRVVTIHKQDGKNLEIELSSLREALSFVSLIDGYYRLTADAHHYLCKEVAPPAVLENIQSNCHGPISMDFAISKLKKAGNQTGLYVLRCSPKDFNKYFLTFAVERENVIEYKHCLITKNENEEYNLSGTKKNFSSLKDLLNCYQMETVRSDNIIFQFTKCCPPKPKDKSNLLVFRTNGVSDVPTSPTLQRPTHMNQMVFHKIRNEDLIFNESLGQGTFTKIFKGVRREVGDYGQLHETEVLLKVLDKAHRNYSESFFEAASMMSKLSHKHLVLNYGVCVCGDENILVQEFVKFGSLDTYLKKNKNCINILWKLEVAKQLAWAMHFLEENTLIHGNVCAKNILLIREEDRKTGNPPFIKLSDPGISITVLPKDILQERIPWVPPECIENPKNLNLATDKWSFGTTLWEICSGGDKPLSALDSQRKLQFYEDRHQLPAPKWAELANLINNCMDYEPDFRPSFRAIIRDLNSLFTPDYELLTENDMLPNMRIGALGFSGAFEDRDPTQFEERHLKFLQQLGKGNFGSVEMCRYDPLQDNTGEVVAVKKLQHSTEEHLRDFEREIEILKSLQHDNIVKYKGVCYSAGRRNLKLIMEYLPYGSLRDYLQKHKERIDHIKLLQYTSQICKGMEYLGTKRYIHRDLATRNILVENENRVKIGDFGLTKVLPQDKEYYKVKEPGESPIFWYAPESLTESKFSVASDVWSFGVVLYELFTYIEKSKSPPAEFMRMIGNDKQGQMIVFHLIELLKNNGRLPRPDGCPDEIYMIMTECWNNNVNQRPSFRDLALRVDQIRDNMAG

With `Cc1nc2cnc3ccc(-c4cc(Cl)c(O)c(Cl)c4)cc3c2n1C1CCN(C)CC1`, the IC50 at 24 h in data set [1] is > 10 µM. For the same molecule, the Activity entry is “Dde” in data set [2]; “Dde” in [3]; “Non-Toxic” in data set [6]; “Non-Toxic” in [7]; “Non-Toxic” in data set [8]. Also, the result in data set [4], in data set [5], in data set [9] and in [10] was Active. Besides, the IC50 came out at 0.015 µM in [11] and 0.0462 µM in data set [12].
